Data from patent US20230257398A1, “PYRIMIDINE-BASED TRICYCLIC COMPOUND AND USE THEREOF” (Chia Tai Tianqing Pharmaceutical Group Co., Ltd., priority 2020, published 2023).

Target: T1, sGC (Homo sapiens, UniProt Q02108+Q02153)
T1 construct: Preparation of LNCap Cells; endogenous in cells; host or cells: LNCaP cells (14th generation), no transfection described
T1 sequence (Q02153 1-619): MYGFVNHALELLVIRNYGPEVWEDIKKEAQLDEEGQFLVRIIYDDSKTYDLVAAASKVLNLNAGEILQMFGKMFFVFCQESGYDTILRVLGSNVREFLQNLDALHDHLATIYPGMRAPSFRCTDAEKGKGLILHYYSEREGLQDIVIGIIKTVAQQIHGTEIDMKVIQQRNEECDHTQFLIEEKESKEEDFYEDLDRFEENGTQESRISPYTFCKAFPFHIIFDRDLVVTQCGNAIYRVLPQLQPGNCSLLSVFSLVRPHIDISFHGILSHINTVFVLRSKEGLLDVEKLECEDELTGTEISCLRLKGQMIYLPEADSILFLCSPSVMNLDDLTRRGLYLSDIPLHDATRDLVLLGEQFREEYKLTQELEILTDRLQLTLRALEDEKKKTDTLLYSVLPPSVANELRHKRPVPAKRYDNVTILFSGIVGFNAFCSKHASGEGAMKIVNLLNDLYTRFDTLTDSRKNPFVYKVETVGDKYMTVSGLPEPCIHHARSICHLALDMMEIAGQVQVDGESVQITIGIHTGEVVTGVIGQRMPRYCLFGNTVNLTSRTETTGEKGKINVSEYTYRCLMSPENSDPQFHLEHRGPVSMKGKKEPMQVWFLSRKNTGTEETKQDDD
T1 sequence (Q02108 1-690): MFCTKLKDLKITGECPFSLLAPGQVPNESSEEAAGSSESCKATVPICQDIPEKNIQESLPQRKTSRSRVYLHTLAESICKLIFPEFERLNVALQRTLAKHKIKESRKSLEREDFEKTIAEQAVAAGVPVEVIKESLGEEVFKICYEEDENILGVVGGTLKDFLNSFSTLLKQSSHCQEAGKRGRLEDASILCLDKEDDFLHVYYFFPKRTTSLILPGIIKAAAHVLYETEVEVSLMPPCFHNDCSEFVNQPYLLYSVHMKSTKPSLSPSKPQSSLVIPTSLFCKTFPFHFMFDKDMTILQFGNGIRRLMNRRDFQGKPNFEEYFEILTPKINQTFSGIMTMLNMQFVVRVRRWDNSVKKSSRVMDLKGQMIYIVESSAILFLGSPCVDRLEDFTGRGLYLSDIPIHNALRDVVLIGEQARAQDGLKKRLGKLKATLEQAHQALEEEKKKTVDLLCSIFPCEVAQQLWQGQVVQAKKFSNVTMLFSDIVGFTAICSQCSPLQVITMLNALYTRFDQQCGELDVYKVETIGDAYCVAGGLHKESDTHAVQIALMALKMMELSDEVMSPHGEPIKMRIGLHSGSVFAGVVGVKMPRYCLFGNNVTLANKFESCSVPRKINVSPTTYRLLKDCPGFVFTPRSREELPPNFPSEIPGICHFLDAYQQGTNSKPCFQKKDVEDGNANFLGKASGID
Experiment: lnCap cell-based cGMP expression assay (stimulating activity for sGC)
Settings: with DETA-NO, 37° C. 30 min, HTRF cGMP
Procedure: I. lnCap Cell-Based cGMP Expression Assay
1) Preparation of Solutions
10% BSA (Bovine Serum Albumin)
10 g of BSA was dissolved in 100 mL of double distilled water (ddH2O) to give 10% BSA.
5 mM DETA (Diethylenetriamine)-NO
10 mg of DETA-NO was weighed out and dissolved in 12.2 mL of double distilled water (ddH2O) to give 5 mM DETA-NO, which was aliquoted and cryopreserved in a freezer at −20° C.
a) To 1 mL of a lysis buffer was added 50 μL of cGMP-D2 (D2-labeled cyclic guanosine monophosphate), and the mixture was well mixed.
b) To 1 mL of a lysis buffer was added 50 μL of anti-cGMP cryptate (Eu^3+ cryptate-labeled anti-cyclic guanosine monophosphate antibody), and the mixture was well mixed.
(1) The compounds were diluted to 5 mM with DMSO. 10 μL of each of the compounds was transferred to a shallow well plate for Echo.
(2) The compounds were gradiently diluted with Echo. Each of the compounds was diluted to obtain 10 concentration gradients, and 50 nL of each of the concentration gradients was added to a 384 microwell plate.
3) Preparation of LNCap Cells
(1) LNCap medium: RPMI1640+10% fetal bovine serum+1% […].
(2) Phosphate buffered saline, pancreatin and the medium used in the process of cell passaging were pre-heated in a water bath at 37° C.
(3) The cells (the 14th generation) were taken out of the 37° C., 5% CO2 incubator, and the old medium was pipetted off the culture flask.
(4) 5 mL of phosphate buffered saline was pipetted into the culture flask to rinse the cells, and then the liquid was discarded.
(5) 3 mL of pancreatin was pipetted into the culture flask. After the culture flask was shaken, the liquid was discarded, and the culture flask was placed in the incubator.
(6) After about 2 min the culture flask was taken out. […] The cell suspension was transferred to a 50 mL centrifuge tube.
(7) 0.7 mL of the cell suspension was pipetted into a counter cup and the cells were counted on a ViCell XR. The remaining cells were centrifuged at 1000 rpm for 5 min, and the supernatant was removed.
(8) The cells were washed by adding 10 mL of the washing buffer and centrifuged at 1000 rpm for 5 min, and the supernatant was removed.
(9) The assay buffer was added to adjust the cell concentration to 1.25×10^6/mL. The cells were added to the microwell plate at 8 μL/well.
4) Formulation and Addition of DETA-NO
(1) 10 μL of 5 mM DETA-NO was added to 1240 μL of the assay buffer and to 1657 μL of the assay buffer to give 40 μM DETA-NO and 30 μM DETA-NO, respectively.
(2) DETA-NO was transferred to the 384 microwell plate at 2 μL/well using Bravo.
(3) The mixtures were centrifuged at 1500 rpm for 5 min. The microwell plate was incubated at 37° C. for 30 min.
5) Preparation of cGMP Standard Curve
(1) 1 mM of the cGMP stock solution was diluted to 10 μM with the assay buffer. Then 4-fold gradient dilution was performed to obtain 11 concentration gradients.
(2) The cGMP dilutions were added to the microwell plate at 10 μL/well.
6) Addition of Detection Reagents and Plate Reading
(1) cGMP-D2 was transferred to the 384 microwell plate at 5 μL/well using Bravo. The mixtures were centrifuged at 1500 rpm for 1 min.
(2) The anti-cGMP cryptate was transferred to the 384 microwell plate at 5 μL/well using Bravo. The mixtures were centrifuged at 1500 rpm for 1 min.
(3) The plate was incubated at room temperature for 1 h.
(4) 665/615 was read using envision.
(1) cGMP standard curve: a standard curve was generated using Graphpad prism based on the cGMP concentrations and 665/615 ratios.
(2) Conversion of HTRF (homogeneous time-resolved fluorescence) ratios (665/615) to cGMP concentrations: in Graphpad prism, the HTRF ratios (665/615) were copied into the ratio column of the cGMP standard curve, and the “Log inhibitor vs response-variable slope” analysis was run with “interpolate” selected to convert the HTRF ratios (665/615) to cGMP concentrations. […]

MEC: minimum effective concentration to stimulate cGMP production (three times greater than the basal value) in lnCap cells: 178.6 nM
Structure (SMILES): CC12CCC(=O)Nc3nc(-c4nn(Cc5c(F)cccc5F)c5ncc(F)cc45)nc(c31)NC(=O)C2 (stereo not shown) [Compound 011]
